Experimental data published in patent US9938276B2, “6,5-bicyclic octahydropyrrolopyridine orexin receptor antagonists” (Merck Sharp & Dohme Corp., priority 2014, dated 2018).
pIC50: −log10 of the molar value.

Legend:
[1] = molecular target: hOX1R (Homo sapiens, UniProt O43613); experiment: hOX1R FLIPR Ca2+ flux assay; assay type: cell-based; conditions: CHO cells expressing the receptor; agonist 70 pM Ala-6,12 human orexin-A
[2] = molecular target: human orexin-2 receptor (Homo sapiens (Human), UniProt O43614); experiment: hOX2R FLIPR Ca2+ flux assay; assay type: cell-based; conditions: CHO cells expressing the receptor; agonist 70 pM Ala-6,12 human orexin-A
Chain of human orexin-2 receptor (O43614 whole entry): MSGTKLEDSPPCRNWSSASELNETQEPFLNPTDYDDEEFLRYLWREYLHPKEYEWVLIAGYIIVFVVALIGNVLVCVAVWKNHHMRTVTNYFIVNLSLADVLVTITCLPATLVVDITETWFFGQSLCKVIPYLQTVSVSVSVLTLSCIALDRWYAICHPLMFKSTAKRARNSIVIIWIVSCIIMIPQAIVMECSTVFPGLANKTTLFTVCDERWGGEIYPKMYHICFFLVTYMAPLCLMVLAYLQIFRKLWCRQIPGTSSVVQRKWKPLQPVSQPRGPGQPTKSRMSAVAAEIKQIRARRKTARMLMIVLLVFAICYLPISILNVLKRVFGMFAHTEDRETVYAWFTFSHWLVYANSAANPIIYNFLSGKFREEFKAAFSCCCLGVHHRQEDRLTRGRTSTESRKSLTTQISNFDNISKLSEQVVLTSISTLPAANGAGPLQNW
Experimental: In a typical experiment the OX1 and OX2 receptor antagonistic activity of the compounds of the present invention was determined in accordance with the following experimental method. For intracellular calcium measurements, Chinese hamster ovary (CHO) cells expressing the rat orexin-1 receptor or the human orexin-2 receptor, are grown in Iscove's modified DMEM containing 2 mM L-glutamine, […], 1% hypoxanthine-thymidine supplement, 100 U/ml penicillin, 100 μg/ml streptomycin and 10% heat-inactivated fetal calf serum (FCS). The cells are seeded at 20,000 cells/well into Becton-Dickinson black 384-well clear bottom sterile plates coated with poly-D-lysine. All reagents were from GIBCO-Invitrogen Corp. The seeded plates are incubated overnight at 37° C. and 5% CO2. Ala-6,12 human orexin-A as the agonist is prepared as a 1 mM stock solution in 1% bovine serum albumin (BSA) and diluted in assay buffer (HBSS containing 20 mM HEPES, 0.1% BSA and 2.5 mM probenecid, pH7.4) for use in the assay at a final concentration of 70 pM. Test compounds are prepared as 10 mM stock solution in DMSO, then diluted in 384-well plates, first in DMSO, then assay buffer. On the day of the assay, cells are washed 3 times with 100 μl assay buffer and then incubated for 60 min (37° C., 5% CO2) in 60 μl assay buffer containing 1 μM Fluo-4AM ester, 0.02% pluronic acid, and 1% BSA. The dye loading solution is then aspirated and cells are washed 3 times with 100 μl assay buffer. 30 μl of that same buffer is left in each well. Within the Fluorescent Imaging Plate Reader (FLIPR, Molecular Devices), test compounds are added to the plate in a volume of 25 μl, incubated for 5 min and finally 25 μl of agonist is added. Fluorescence is measured for each well at 1 second intervals for 5 minutes and the height of each fluorescence peak is compared to the height of the fluorescence peak induced by 70 pM Ala-6,12 orexin-A with buffer in place of antagonist. […] Alternatively, compound potency can be assessed by a radioligand binding assay (described in Bergman et. al. Bioorg. Med. Chem. Lett. 2008, 18, 1425-1430) in which the inhibition constant (Ki) is determined in membranes prepared from CHO cells expressing either the OX1 or OX2 receptor. The intrinsic orexin receptor antagonist activity of a compound which may be used in the present invention may be determined by these assays.

| SMILES | pIC50 [1] | pIC50 [2] |
| --- | --- | --- |
| O=C(c1ccccc1-n1nccn1)N1CC[C@H]2CCN(c3ccc4ccccc4n3)[C@H]2C1 [Example B18, 2-[(3aR, 7aR)-6-{[2-(2H-1,2,3-triazol-2-yl)phenyl]carbonyl}octahydro-1H-pyrrolo[2,3-c]pyridin-1-yl]quinoline] | 5.98 | 5.82 |
| N#Cc1ccnc(N2CC[C@@H]3CCN(C(=O)c4ccccc4C4CC4)C[C@@H]32)c1 [Example E12, 2-{(3aR, 7aR)-6-[(2-cyclopropylphenyl)carbonyl]octahydro-1H-pyrrolo[2,3-c]pyridin-1-yl}pyridine-4-carbonitrile] | 5.00 | 7.09 |
| N#Cc1ccnc(N2CC[C@H]3CCN(C(=O)c4ccccc4-n4ncnn4)C[C@H]32)c1 (stereo in doubt) [Example D2, 2-((3aS, 7aS)-6-(2-(2H-tetrazol-2-yl)benzoyl)octahydro-1H-pyrrolo[2,3-c]pyridin-1-yl)isonicotinonitrile] | 5.00 | 6.96 |
| C[C@H]1C[C@H]2CCN(c3cc(C#N)ccn3)[C@H]2CN1C(=O)c1ccccc1-n1nccn1 [Example H1, 2-(6-(2-(2H-1,2,3-triazol-2-yl)benzoyl)-5-methloctahydro-1H-pyrrolo[2,3-c]pyridin-1-yl)isonicotinonitrile] | 5.63 | 7.74 |
| CC(C)(O)c1cccc(N2CC[C@@H]3CCN(C(=O)c4ccccc4-n4nccn4)C[C@@H]32)c1 [Example C4, 2-{3-[(3aR, 7aR)-6-{[2-(2H-1,2,3-triazol-2-yl)phenyl]carbonyl}octahydro-1H-pyrrolo[2,3-c]pyridin-1-yl]phenyl}propan-2-ol] | 5.00 | 7.31 |
| Cc1ccc(C)n1-c1ccc(N2CC[C@@H]3CCN(C(=O)c4ccccc4-n4nccn4)C[C@@H]32)nn1 [Example A11, (2-(2H-1,2,3-triazol-2-yl)phenyl)((3aR, 7aR)-1-(6-(2,5-dimethyl-1H-pyrrol-1-yl)pyridazin-3-yl)hexahydro-1H-pyrrolo[2,3-c]pyridin-6(2H)-yl)methanone] | 5.00 | 5.00 |
| COc1cc(N2CC[C@@H]3CCN(C(=O)c4ccccc4-n4nccn4)C[C@@H]32)ncc1C#N [Example A9] | ≤ 5.00 | 5.58 |
| N#Cc1ccnc(N2CC[C@@H]3CCN(C(=O)c4ccccc4C4CCC4)C[C@@H]32)c1 [Example E15, 2-{(3aR, 7aR)-6-[(2-cyclobutylphenyl)carbonyl]octahydro-1H-pyrrolo[2,3-c]pyridin-1-yl}pyridine-4-carbonitrile] | 5.01 | 7.51 |
| N#Cc1ccnc(N2CC[C@@H]3CCN(C(=O)c4cccnc4CC(F)(F)F)C[C@@H]32)c1 [Example E11, 2-[(3aR, 7aR)-6-{[2-(2,2,2-trifluoroethyl)pyridin-3-yl]carbonyl}octahydro-1H-pyrrolo[2,3-c]pyridin-1-yl]pyridine-4-carbonitrile] | 5.00 | 5.68 |
| N#Cc1ccnc(N2CC[C@@H]3CCN(C(=O)c4cccnc4-c4ccccc4)C[C@@H]32)c1 [Example E5, 2-((3aR, 7aR)-6-(2-phenylnicotinoyl)octahydro-1H-pyrrolo[2,3-c]pyridin-1-yl)isonicotinonitrile] | 5.00 | 7.03 |
| N#Cc1ccnc(N2CC[C@H]3CCN(C(=O)c4ccccc4-n4nccn4)C[C@H]32)c1 [Example A1, 2-((3aS,7aS)-6-(2-(2H-1,2,3-triazol-2-yl)benzoyl)octahydro-1H-pyrrolo[2,3-c]pyridin-1-yl)isonicotinonitrile] | 5.00 | 7.39 |
| COc1ccc(C(=O)N2CC[C@H]3CCN(c4cc(C#N)ccn4)[C@H]3C2)c(C2CC2)n1 [Example E13, 2-{(3aR, 7aR)-6-[(2-cyclopropyl-6-methoxypyridin-3-yl)carbonyl]octahydro-1H-pyrrolo[2,3-c]pyridin-1-yl}pyridine-4-carbonitrile] | 5.00 | 6.01 |
| COC(=O)c1ccnc(N2CC[C@@H]3CCN(C(=O)c4ccccc4-n4nccn4)C[C@@H]32)c1 [Example A8] | ≤ 5.00 | ≤ 5.00 |
| Cc1cc(C)nc(N2CC[C@@H]3CCN(C(=O)c4ccccc4-n4nccn4)C[C@@H]32)n1 [Example A2, (2-(2H-1,2,3-triazol-2-yl)phenyl)((3aR, 7aR)-1-(4,6-dimethylpyrimidin-2-yl)hyexahydro-1H-pyrrolo[2,3-c]pyridin-6(2H)-yl)methanone] | 5.00 | 6.79 |
| CCOc1ccnc(N2CC[C@@H]3CCN(C(=O)c4ccccc4-n4nccn4)C[C@@H]32)c1 [Example B4, (3aR, 7aR)-(2-(2H-1,2,3-triazol-2-yl)phenyl)(1-(4-ethoxypyridin-2-yl)hexahydro-1H-pyrrolo[2,3-c]pyridin-6(2H)-yl)methanone] | ≤ 5.00 | 6.12 |
| O=C(c1ccccc1-n1nccn1)N1CC[C@H]2CCN(c3nccn4ccnc34)[C@H]2C1 [Example B14, (2-(2H-1,2,3-triazol-2-yl)phenyl)((3aR, 7aR)-1-(imidazo[1,2-a]pyrazin-8-yl)hexahydro-1H-pyrrolo[2,3-c]pyridin-6(2H)-yl)methanone] | ≤ 5.00 | 5.97 |
| O=C1OCc2c1ccnc2N1CC[C@@H]2CCN(C(=O)c3ccccc3-n3nccn3)C[C@@H]21 [Example B19, 4-[(3aR, 7aR)-6-{[2-(2H-1,2,3-triazol-2-yl)phenyl]carbonyl}octahydro-1H-pyrrolo[2,3-c]pyridin-1-yl]furo[3,4-c]pyridin-1(3H)-one] | 5.00 | 6.00 |
| N#Cc1ccnc(N2CC[C@@H]3CCN(C(=O)c4ncccc4-n4nccn4)C[C@@H]32)c1 [Example E20, 2-[(3aR, 7aR)-6-{[3-(2H-1,2,3-triazol-2-yl)pyridin-2-yl]carbonyl}octahydro-1H-pyrrolo[2,3-c]pyridin-1-yl]pyridine-4-carbonitrile] | ≤ 5.00 | 5.82 |
| N#Cc1ccnc(N2CC[C@@H]3CCN(C(=O)c4ccccc4-n4nccn4)C[C@@H]32)n1 [Example A3, 2-((3aR, 7aR)-6-(2-(2H-1,2,3-triazol-2-yl)benzoyl)octahydro-1H-pyrrolo[2,3-c]pyridin-1-yl)pyrimidine-4-carbonitrile] | 5.00 | 6.03 |
| O=C(c1ccccc1-n1nccn1)N1CC[C@H]2CCN(c3ncnc4scnc34)[C@H]2C1 [Example A13, (2-(2H-1,2,3-triazol-2-yl)phenyl)((3aR, 7aR)-1-(thiazolo[5,4-d]pyrimidin-7-yl)hexahydro-1H-pyrrolo[2,3-c]pyridin-6(2H)-yl)methanone] | ≤ 5.00 | ≤ 5.00 |
| N#Cc1ccnc(N2CC[C@@H]3CCN(C(=O)c4ccccc4N4CCCC4)C[C@@H]32)c1 [Example E16, 2-{(3aR, 7aR)-6-[(2-pyrrolidin-1-ylphenyl)carbonyl]octahydro-1H-pyrrolo[2,3-c]pyridin-1-yl}pyridine-4-carbonitrile] | 5.00 | 7.00 |
| N#Cc1ccnc(N2CC[C@@H]3CCN(C(=O)c4ccccc4OCC(F)(F)F)C[C@@H]32)c1 [Example E9, 2-[(3aR, 7aR)-6-{[2-(2,2,2-trifluoroethoxy)phenyl]carbonyl}octahydro-1H-pyrrolo[2,3-c]pyridin-1-yl]pyridine-4-carbonitrile] | ≤ 5.00 | 6.50 |
| NC(=O)c1ccnc(N2CC[C@@H]3CCN(C(=O)c4ccccc4-n4nccn4)C[C@@H]32)c1 [Example F1, 2-((3aR,7aR)-6-(2-(2H-1,2,3-triazol-2-yl)benzoyl)octahydro-1H-pyrrolo[2,3-c]pyridin-1-yl)isonicotinamide] | ≤ 5.00 | 6.25 |
| N#Cc1ccnc(N2CC[C@@H]3CCN(C(=O)c4ccccc4-c4ncccn4)C[C@@H]32)c1 [Example E23, 2-{(3aR, 7aR)-6-[(2-pyrimidin-2-ylphenyl)carbonyl]octahydro-1H-pyrrolo[2,3-c]pyridin-1-yl}pyridine-4-carbonitrile] | ≤ 5.00 | 7.00 |
| COC(=O)c1ccc(N2CC[C@@H]3CCN(C(=O)c4ccccc4-n4nccn4)C[C@@H]32)nn1 [Example A12, methyl 6-((3aR, 7aR)-6-(2-(2H-1,2,3-triazol-2-yl)benzoyl)octahydro-1H-pyrrolo[2,3-c]pyridin-1-yl)pyridazine-3-carboxylate] | ≤ 5.00 | ≤ 5.00 |
| N#Cc1ccnc(N2CC[C@@H]3CCN(C(=O)c4ccccc4CC(F)(F)F)C[C@@H]32)c1 [Example E3, 2-((3aR, 7aR)-6-(2-(2,2,2-trifluoroethyl)benzoyl)octahydro-1H-pyrrolo[2,3-c]pyridin-1-yl)isonicotinonitrile] | 5.00 | 7.32 |
